According to patent publication EP2727916A1, “Neuroprotective multi-target directed drugs” (Universitat Autònoma de Barcelona, priority 2012, dated 2014):
Entries after “also recorded” stand apart in the source; their conditions may differ.

How the values were obtained:
[1] = Metal binding assay, spectrophotometric detection of Cu(II) complex; format: physicochemical; conditions: 10 µM, Tris buffer pH7.4, Cu(SO4) 6.25 and 12.5 µM, few minutes after addition
Procedure: (§1) Lineweaver-Burk reciprocal plots of initial velocity and substrate concentrations (0.1-1 mM) are presented. […] Lineweaver-Burk reciprocal plots of initial velocity and substrate concentrations (0.1-1 mM) are presented. […] Lineweaver-Burk reciprocal plots of initial velocity and substrate concentrations (0.1-1 mM) are presented. […] Three consecutive centrifuges were performed with buffer. […] 5 µM). All solution were made using Tris buffer pH7.4. […] 5 µM). All solution were made using Tris buffer pH7.4. […] 5 µM). All solution were made using Tris buffer pH7.4. Spectra were obtained after a Short-time incubation
It is known that 8-quinolinol is a strong chelator for biometals such iron and copper. This is an important precondition for the antioxidative-type drugs because it is the excessive iron stores and iron-mediated generation of free radicals in the brain that are thought to be associated with neurodegenerative diseases. Therefore, only chelators with a higher selectivity for iron over copper are expected to chelate iron instead of copper and have potential neuroprotective effects. […] A spectrophotometric method is used for measurement of the copper/iron-complexes stability constants of the compounds.
The metal binding assay was performed by the spectrophotometric detection of the formation of Fe(III)- and Cu(II)-6 complex.

[2] = target: equine serum butyrylcholinesterase (eqBuChE) (Equus caballus, UniProt P81908); assay: biochemical; format: biochemical
equine serum butyrylcholinesterase (eqBuChE), sequence (P81908 whole entry): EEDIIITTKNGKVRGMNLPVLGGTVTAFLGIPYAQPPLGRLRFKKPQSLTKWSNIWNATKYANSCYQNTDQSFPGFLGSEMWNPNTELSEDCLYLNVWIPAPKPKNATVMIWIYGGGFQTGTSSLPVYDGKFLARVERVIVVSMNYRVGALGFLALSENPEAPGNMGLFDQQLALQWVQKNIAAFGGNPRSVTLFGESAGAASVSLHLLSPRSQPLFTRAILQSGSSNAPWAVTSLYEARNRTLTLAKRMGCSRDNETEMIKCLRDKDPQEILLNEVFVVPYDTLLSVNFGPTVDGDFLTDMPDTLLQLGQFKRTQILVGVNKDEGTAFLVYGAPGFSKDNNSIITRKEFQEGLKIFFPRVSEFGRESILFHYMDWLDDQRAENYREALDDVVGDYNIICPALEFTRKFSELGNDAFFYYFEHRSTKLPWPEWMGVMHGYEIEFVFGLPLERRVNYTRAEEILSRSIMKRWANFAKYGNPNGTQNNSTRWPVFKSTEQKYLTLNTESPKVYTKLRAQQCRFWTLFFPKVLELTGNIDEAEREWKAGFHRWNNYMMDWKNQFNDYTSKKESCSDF

[3] = target: T1, MAO-B (Rattus norvegicus, UniProt P19643); assay: Reversibility study of MAO-B inhibition (centrifugation and washing); format: biochemical
T1 construct: from tissue; host or cells: rat brain homogenate per the methods
T1 sequence (P19643 1-520): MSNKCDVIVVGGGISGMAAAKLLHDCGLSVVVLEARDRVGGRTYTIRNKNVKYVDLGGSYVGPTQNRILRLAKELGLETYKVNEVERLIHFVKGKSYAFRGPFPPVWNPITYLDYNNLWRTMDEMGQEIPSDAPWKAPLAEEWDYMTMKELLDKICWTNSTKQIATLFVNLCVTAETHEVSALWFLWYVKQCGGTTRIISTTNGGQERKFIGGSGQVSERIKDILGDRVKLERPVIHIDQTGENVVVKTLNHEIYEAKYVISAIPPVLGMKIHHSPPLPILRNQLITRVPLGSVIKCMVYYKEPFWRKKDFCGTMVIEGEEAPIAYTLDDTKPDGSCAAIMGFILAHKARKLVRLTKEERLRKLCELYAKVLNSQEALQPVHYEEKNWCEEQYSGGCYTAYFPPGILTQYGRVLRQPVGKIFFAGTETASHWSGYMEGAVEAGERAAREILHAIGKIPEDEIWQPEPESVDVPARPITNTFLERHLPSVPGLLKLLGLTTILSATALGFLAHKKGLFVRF
Procedure: as §1

[4] = target: T2, ratMAO-B (Rattus norvegicus, UniProt P19643); assay: MAO-B inhibition, radiometric method of Fowler and Tipton (14C PEA); format: biochemical; design: MAO-A and MAO-B activities were determined in rat brain homogenate; from tissue; host or cells: rat brain homogenate per the methods
T2 sequence (P19643 1-520): T1 sequence (P19643 1-520)

[5] = target: T3, MAO-A (Rattus norvegicus, UniProt P21396); assay: Reversibility study of MAO-A inhibition (centrifugation and washing); format: biochemical
T3 construct: from tissue; host or cells: rat brain homogenate per the methods
T3 sequence (P21396 1-526): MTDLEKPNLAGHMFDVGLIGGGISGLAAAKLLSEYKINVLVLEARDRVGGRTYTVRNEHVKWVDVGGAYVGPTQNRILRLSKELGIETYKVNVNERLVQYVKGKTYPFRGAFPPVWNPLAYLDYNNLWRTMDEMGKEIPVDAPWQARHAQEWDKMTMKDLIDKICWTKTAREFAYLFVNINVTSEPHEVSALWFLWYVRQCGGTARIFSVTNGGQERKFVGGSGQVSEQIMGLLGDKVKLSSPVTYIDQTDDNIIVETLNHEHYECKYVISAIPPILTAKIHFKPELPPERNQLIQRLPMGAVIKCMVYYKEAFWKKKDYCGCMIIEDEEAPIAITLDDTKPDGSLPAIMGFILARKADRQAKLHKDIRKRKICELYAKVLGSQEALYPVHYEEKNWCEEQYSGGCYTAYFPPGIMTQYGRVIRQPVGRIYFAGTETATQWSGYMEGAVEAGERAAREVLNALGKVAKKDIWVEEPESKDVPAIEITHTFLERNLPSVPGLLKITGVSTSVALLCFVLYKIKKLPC
Procedure: as §1

[6] = target: T1, MAO-B; assay: Time-dependence of MAO-B inhibition (pre-incubation times); format: biochemical
Procedure: as §1
Independent inhibition assays were also performed at different pre-incubation periods for both two MAO isoforms (Figure 6). […]

[7] = target: EeAChE (Electrophorus electricus, UniProt O42275); assay: Kinetic study of EeAChE inhibition (Lineweaver-Burk plots); format: biochemical
EeAChE, sequence (O42275 24-633): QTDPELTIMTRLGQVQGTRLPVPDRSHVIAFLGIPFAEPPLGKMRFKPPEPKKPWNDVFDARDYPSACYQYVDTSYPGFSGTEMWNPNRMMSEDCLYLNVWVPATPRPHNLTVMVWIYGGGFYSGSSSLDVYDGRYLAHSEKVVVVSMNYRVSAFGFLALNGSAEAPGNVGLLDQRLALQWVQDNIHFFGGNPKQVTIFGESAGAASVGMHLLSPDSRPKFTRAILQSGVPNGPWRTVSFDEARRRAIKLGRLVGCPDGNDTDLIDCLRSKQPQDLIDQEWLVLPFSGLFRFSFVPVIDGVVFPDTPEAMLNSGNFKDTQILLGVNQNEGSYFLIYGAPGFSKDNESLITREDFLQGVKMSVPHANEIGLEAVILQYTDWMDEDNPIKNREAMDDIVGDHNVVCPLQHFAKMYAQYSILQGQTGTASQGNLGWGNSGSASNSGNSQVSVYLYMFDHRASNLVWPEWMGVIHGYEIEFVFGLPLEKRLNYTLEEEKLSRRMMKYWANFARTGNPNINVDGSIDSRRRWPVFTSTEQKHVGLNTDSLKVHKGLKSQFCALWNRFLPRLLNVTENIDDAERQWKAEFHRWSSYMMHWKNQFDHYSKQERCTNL
Procedure: as §1
To determine the type of the EeAChE inhibition mechanism of these compounds, a kinetic study was carried out on inhibitor 6.

[8] = target: T2, ratMAO-B; assay: Kinetic study of MAO-B inhibition (Lineweaver-Burk plots); format: biochemical; design: from tissue; host or cells: rat brain homogenate per the methods
Procedure: as §1

[9] = target: T4, ratMAO-A (Rattus norvegicus, UniProt P21396); assay: Kinetic study of MAO-A inhibition (Lineweaver-Burk plots); format: biochemical; design: from tissue; host or cells: rat brain homogenate per the methods
T4 sequence (P21396 1-526): T3 sequence (P21396 1-526)
Procedure: as §1

[10] = target: electrophorus electricus acetylcholinesterase (eeAChE) (Electrophorus electricus, UniProt O42275); assay: biochemical; format: biochemical
electrophorus electricus acetylcholinesterase (eeAChE), sequence (O42275 24-633): as above

[11] = 20 µM, pre-incubation times 0-360 min
[12] = Lineweaver-Burk reciprocal plots
[13] = estimated from the slopes of double reciprocal plots

C#CCN(Cc1ccc(O)c2ncccc12)C(C#N)CCC1CCN(Cc2ccccc2)CC1 (stereo not shown) [Compound 6, 4-(1-benzylpiperidin-4-yl)-2-(((8-hydroxyquinolin-5-yl)methyl)(prop-2-yny)amino)butanenitrile]
formation of Cu(II)-6 complex, UV-vis spectrum change [1]: The 240 nm-band completely dissapeared while a new one appeared at 275 nm | fold more active than donepezil 1 for eqBuChE inhibition [2]: 4.5 fold | IC50 ([2]; 20 minutes incubation at 37°C, mean ± standard error of the mean, read-out: IC50 eqBuChE): 1.63 ± 0.25 µM | BuChE/ AChE ([2]; ratio of IC50 values): 0.92 | reversibility of MAO-B inhibition ([3]; 30 min inhibition (6 at 20 µM, I-deprenyl 20 nM), three consecutive centrifugations and washings with buffer): reversibly inhibited | MAO-B activity recovering ([3]; inhibited at 20 µM for 30 min, three consecutive centrifuges with buffer, mean ± SEM): 55.8 ± 4.0% | IC50 [4]: 10.2 ± 0.9 µM | MAO-B/ MAO-A [4]: 1.7 | fold less active than M-30 for the inhibition of MAO-B [4]: 179 fold | reversibility of MAO-A inhibition ([5]; 30 min inhibition (6 at 10 µM, clorgyline 50 nM), three consecutive centrifugations and washings with buffer): reversibly inhibited | MAO-A activity recovering ([5]; inhibited at 10 µM for 30 min, three consecutive centrifuges with buffer, mean ± SEM): 56.5 ± 9.3% | pre-incubation period to complete MAO-B activity inhibition [6, 11]: ≥ 180 min | time-dependence of MAO-B inhibition [6, 11]: irreversible behaviour; also recorded: time-dependent | IC50 ([6]; pre-incubation time 0 min): 61.7 µM | IC50 ([6]; pre-incubation time 30 min): 9.3 µM | IC50 ([6]; pre-incubation time 60 min): 3.3 µM | IC50 ([6]; pre-incubation time 240 min): 1.2 µM | type of EeAChE inhibition mechanism [7, 12]: mixed-type inhibition | Ki [7, 13]: 1.21 ± 0.25 µM | type of MAO-B inhibition mechanism [8, 12]: non-competitive inhibition | Ki [8, 13]: 10.8 ± 2.43 µM | type of MAO-A inhibition mechanism [9, 12]: non-competitive inhibition | Ki [9, 13]: 8.41 ± 1.32 µM | IC50 [10]: 1.77 ± 0.1 µM | fold more active than M-30 for the inhibition of AChE ([10]; compared with M-30): 64 fold
